Experimental data reported in PMC7690782, “Liver-Targeting Class I Selective Histone Deacetylase Inhibitors Potently Suppress Hepatocellular Tumor Growth as Standalone Agents” (Cancers, 2020).

Legend:
Experiment in all cases: Fluor de Lys fluorescence deacetylase inhibition assay
Format in all cases: biochemical
Settings in all cases: read-out: 1 (IC50)
HDAC10 = molecular target: T1, HDAC10 (Homo sapiens, UniProt Q969S8)
T1 construct: enzyme of BPS Bioscience contract assay
T1 sequence (Q969S8 1-669): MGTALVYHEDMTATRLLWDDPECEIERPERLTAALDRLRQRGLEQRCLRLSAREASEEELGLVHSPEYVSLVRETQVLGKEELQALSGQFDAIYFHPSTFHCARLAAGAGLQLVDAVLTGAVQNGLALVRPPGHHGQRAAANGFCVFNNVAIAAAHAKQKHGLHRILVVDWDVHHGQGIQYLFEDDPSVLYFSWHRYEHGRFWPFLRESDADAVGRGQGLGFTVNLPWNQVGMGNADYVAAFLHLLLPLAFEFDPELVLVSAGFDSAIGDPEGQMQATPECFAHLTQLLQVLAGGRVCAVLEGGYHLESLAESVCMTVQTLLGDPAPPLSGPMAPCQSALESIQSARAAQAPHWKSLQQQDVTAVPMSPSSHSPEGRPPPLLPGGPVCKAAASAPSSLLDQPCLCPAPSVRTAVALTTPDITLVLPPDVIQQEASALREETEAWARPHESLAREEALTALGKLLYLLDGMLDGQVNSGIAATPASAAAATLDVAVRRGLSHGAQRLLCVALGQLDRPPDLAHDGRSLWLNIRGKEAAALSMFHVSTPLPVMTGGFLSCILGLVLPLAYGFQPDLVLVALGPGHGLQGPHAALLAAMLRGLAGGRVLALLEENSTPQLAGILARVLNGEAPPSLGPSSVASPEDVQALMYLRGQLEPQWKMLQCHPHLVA
From the text: Fluor de Lys fluorescence deacetylase inhibition assay on HDAC10

HDAC7 = molecular target: T2, HDAC7 (Homo sapiens, UniProt Q8WUI4)
T2 construct: enzyme of BPS Bioscience contract assay
T2 sequence (Q8WUI4 518-952 limits assumed): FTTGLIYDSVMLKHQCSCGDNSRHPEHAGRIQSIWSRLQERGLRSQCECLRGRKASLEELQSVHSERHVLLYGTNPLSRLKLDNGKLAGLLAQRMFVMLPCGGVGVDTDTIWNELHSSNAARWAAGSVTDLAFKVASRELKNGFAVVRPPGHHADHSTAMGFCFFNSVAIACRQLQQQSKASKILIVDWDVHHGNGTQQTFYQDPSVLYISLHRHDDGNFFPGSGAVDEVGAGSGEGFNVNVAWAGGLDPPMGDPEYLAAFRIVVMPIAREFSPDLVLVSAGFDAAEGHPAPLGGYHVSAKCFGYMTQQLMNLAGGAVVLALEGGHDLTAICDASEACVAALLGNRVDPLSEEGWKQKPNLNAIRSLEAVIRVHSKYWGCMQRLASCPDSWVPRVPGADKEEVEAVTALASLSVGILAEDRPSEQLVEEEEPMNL
From the text: Fluor de Lys fluorescence deacetylase inhibition assay on HDAC7

HDAC4 = molecular target: T3, HDAC4 (Homo sapiens, UniProt P56524)
T3 construct: enzyme of BPS Bioscience contract assay
T3 sequence (P56524 627-1084 limits assumed): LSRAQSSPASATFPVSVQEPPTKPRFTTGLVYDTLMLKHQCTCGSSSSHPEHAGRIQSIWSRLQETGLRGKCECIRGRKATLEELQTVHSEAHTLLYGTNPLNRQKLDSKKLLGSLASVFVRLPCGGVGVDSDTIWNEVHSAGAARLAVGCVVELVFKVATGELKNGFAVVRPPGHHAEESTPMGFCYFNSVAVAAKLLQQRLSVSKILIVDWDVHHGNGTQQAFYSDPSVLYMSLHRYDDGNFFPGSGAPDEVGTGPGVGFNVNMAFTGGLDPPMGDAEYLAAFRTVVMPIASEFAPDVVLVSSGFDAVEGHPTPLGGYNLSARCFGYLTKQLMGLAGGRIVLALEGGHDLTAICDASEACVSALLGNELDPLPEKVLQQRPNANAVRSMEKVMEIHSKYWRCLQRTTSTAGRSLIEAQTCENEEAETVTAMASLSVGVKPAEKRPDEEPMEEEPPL
From the text: Fluor de Lys fluorescence deacetylase inhibition assay on HDAC4

HDAC6 = molecular target: T4, HDAC6 (Homo sapiens, UniProt Q9UBN7)
T4 construct: enzyme of BPS Bioscience contract assay
T4 sequence (Q9UBN7 1-1215): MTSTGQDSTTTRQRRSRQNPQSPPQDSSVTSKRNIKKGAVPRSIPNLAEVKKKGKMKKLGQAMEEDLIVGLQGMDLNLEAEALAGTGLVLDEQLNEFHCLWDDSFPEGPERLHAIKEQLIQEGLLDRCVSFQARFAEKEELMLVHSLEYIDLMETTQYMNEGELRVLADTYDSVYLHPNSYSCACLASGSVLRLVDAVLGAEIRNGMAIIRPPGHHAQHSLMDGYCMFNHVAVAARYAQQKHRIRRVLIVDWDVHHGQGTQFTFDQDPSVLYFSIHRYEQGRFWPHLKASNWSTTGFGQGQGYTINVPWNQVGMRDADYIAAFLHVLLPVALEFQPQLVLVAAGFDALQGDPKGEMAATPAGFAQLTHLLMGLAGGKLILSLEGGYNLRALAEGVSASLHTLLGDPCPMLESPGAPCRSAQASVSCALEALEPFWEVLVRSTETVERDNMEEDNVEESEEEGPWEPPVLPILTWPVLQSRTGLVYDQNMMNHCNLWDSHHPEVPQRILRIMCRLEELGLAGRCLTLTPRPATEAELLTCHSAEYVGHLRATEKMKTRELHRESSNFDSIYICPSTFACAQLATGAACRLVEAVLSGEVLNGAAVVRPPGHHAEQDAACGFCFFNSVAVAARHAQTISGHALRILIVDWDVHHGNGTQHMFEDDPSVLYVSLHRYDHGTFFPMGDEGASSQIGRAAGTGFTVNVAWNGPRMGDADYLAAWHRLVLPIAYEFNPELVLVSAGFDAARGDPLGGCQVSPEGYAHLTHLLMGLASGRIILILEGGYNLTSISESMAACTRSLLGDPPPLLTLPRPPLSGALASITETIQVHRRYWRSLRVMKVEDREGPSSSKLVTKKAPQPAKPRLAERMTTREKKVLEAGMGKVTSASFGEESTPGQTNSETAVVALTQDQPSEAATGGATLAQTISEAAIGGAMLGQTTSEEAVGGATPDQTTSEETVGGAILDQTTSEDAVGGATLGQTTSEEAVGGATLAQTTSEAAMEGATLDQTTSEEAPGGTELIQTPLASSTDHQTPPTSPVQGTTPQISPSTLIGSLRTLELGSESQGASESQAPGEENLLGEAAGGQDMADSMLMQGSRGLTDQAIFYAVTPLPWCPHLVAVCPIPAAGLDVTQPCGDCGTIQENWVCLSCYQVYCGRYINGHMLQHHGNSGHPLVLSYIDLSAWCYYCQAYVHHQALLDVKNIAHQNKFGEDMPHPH
From the text: Fluor de Lys fluorescence deacetylase inhibition assay on HDAC6

HDAC1 = molecular target: T5, HDAC1 (Homo sapiens, UniProt Q13547)
T5 construct: enzyme of BPS Bioscience contract assay
T5 sequence (Q13547 whole entry): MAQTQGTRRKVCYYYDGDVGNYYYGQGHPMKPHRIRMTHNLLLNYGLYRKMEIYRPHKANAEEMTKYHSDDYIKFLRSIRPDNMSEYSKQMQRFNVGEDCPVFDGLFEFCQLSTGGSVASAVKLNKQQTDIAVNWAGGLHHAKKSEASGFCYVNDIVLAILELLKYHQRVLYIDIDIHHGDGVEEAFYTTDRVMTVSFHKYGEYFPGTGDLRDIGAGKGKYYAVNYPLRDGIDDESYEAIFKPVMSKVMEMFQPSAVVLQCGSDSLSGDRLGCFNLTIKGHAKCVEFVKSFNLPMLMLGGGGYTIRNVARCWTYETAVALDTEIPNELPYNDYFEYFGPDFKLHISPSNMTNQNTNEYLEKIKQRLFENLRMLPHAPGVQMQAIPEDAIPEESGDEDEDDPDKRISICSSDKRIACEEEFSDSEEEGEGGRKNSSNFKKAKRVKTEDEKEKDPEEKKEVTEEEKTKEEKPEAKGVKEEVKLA
From the text: Fluor de Lys fluorescence deacetylase inhibition assay on HDAC1

HDAC11 = molecular target: T6, HDAC11 (Homo sapiens, UniProt Q96DB2)
T6 construct: enzyme of BPS Bioscience contract assay
T6 sequence (Q96DB2 1-347): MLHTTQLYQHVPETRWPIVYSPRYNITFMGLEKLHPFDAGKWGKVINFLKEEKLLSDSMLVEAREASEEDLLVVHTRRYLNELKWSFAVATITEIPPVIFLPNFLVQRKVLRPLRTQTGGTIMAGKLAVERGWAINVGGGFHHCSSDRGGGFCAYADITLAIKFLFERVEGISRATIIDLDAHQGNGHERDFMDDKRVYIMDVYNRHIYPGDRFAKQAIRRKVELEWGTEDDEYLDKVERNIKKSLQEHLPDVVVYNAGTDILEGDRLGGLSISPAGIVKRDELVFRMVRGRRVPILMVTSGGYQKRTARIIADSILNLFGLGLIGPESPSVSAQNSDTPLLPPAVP
From the text: Fluor de Lys fluorescence deacetylase inhibition assay on HDAC11

HDAC8 = molecular target: T7, HDAC8 (Homo sapiens, UniProt Q9BY41)
T7 construct: enzyme of BPS Bioscience contract assay
T7 sequence (Q9BY41 1-377): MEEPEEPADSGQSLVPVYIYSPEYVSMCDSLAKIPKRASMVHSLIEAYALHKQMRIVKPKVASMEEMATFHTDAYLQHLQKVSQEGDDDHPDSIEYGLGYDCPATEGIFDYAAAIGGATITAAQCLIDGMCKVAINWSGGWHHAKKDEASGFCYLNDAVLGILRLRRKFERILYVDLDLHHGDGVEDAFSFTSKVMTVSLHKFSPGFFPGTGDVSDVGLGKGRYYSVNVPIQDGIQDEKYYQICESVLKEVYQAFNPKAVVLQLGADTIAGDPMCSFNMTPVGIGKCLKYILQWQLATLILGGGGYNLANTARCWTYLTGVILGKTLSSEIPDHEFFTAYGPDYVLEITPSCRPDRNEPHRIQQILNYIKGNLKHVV
From the text: Fluor de Lys fluorescence deacetylase inhibition assay on HDAC8

HDAC9 = molecular target: T8, HDAC9 (Homo sapiens, UniProt Q9UKV0)
T8 construct: enzyme of BPS Bioscience contract assay
T8 sequence (Q9UKV0 whole entry): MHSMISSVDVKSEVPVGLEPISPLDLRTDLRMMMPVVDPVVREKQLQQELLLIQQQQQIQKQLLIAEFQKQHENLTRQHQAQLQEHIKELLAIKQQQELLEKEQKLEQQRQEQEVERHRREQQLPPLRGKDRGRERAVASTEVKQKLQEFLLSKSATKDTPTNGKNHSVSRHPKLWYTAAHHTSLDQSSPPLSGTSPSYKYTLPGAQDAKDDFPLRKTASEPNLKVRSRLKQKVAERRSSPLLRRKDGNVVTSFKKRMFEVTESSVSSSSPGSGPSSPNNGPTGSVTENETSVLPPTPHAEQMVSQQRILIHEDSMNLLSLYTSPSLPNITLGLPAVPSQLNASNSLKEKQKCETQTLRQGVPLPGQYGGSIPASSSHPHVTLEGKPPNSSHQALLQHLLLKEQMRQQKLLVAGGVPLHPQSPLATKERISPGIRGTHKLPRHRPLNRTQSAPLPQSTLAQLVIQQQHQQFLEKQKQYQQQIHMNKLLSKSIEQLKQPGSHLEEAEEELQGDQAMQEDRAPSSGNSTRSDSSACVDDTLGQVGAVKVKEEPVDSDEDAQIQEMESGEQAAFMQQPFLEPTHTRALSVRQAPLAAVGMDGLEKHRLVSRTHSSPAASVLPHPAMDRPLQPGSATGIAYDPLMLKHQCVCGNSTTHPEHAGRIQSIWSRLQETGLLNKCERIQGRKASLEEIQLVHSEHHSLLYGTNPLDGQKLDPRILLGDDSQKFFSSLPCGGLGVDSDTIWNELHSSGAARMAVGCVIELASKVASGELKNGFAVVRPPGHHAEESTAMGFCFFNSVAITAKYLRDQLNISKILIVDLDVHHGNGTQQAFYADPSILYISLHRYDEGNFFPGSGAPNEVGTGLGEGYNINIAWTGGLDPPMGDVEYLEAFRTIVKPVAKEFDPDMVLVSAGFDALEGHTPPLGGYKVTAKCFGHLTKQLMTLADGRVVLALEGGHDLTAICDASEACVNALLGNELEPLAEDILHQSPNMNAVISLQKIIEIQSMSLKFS
From the text: Fluor de Lys fluorescence deacetylase inhibition assay on HDAC9

HDAC2 = molecular target: T9, HDAC2 (Homo sapiens, UniProt Q92769)
T9 construct: enzyme of BPS Bioscience contract assay
T9 sequence (Q92769 whole entry): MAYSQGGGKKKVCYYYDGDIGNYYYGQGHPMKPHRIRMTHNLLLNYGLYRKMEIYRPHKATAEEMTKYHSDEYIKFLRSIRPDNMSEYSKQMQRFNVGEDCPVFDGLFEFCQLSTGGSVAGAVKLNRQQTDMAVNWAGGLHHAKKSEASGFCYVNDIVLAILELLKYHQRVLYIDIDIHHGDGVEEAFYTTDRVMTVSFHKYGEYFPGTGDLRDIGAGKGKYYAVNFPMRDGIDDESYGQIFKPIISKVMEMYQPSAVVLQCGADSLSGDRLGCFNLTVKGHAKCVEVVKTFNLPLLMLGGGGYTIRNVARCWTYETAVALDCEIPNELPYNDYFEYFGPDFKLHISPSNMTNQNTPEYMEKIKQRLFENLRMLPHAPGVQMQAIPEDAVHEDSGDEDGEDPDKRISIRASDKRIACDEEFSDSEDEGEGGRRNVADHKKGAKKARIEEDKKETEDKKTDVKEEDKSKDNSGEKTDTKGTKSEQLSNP
From the text: Fluor de Lys fluorescence deacetylase inhibition assay on HDAC2

HDAC5 = molecular target: T10, HDAC5 (Homo sapiens, UniProt Q9UQL6)
T10 construct: enzyme of BPS Bioscience contract assay
T10 sequence (Q9UQL6 whole entry): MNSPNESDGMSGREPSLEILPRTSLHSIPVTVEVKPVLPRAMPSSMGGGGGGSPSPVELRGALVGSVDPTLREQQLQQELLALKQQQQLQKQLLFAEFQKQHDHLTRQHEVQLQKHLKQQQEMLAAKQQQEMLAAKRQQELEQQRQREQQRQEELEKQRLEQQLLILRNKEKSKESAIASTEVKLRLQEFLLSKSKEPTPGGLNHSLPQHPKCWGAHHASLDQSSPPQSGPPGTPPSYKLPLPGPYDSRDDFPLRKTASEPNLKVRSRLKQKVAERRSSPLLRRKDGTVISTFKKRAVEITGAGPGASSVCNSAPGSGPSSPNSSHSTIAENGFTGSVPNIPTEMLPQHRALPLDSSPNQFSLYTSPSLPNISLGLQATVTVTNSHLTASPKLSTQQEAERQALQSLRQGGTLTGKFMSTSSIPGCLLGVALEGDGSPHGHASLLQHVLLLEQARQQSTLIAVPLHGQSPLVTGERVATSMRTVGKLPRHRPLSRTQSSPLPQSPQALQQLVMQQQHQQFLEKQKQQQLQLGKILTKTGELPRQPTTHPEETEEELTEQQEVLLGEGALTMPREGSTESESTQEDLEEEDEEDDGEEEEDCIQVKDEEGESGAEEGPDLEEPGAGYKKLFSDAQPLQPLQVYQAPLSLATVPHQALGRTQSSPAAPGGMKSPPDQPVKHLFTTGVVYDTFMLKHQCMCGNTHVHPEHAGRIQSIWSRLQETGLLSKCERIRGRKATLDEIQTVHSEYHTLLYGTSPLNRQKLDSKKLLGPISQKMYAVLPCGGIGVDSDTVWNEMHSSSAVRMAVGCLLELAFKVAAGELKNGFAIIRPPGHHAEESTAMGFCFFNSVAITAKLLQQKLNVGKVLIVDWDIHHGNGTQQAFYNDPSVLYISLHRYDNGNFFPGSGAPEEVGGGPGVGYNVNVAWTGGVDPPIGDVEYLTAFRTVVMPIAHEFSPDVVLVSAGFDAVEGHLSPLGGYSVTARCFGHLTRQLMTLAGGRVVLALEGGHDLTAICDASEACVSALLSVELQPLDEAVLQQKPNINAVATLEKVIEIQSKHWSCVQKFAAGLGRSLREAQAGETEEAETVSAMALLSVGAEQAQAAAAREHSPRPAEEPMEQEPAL
From the text: Fluor de Lys fluorescence deacetylase inhibition assay on HDAC5

IC50 (HDAC10): 0.0045 µM | IC50 (HDAC7): 2.62 µM | IC50 (HDAC4): 1.9 µM | IC50 (HDAC6): 0.0017 µM | IC50 (HDAC1): 0.0027 µM | IC50 (HDAC11): 7.36 µM | IC50 (HDAC8): 0.839 µM | IC50 (HDAC9): 6.91 µM | IC50 (HDAC2): 0.0081 µM | IC50 (HDAC5): 1.77 µM
Structure (SMILES): CC[C@H]1OC(=O)[C@H](C)[C@@H](O[C@H]2C[C@@](C)(OC)[C@@H](O)[C@H](C)O2)[C@H](C)[C@@H](O[C@@H]2O[C@H](C)C[C@H](N(C)Cc3ccc(-c4cn(CCCCCCC(=O)NO)nn4)cc3)[C@H]2O)[C@](C)(O)C[C@@H](C)CN(C)[C@H](C)[C@@H](O)[C@]1(C)O [compound 1]
